Results on six molecules are retold here after patent US20230059747A1, “A COOLING PREPARATION” (SYMRISE AG, priority 2019, published 2023).

The subject of one assay is rat eyes. The settings on record: cited from earlier work.
Assay [1] deals with panel of 5 experienced testers. The assay is described as follows: Long lasting cooling sensation: panel evaluation of toothpaste compositions. In kind it is in vivo, human. Particulars: added to standard toothpaste. On the procedure: Phenylalkennals and homovanillic acid esters were added alone and in combination to a standard toothpaste composition. A panel of 5 experienced testers evaluated the compositions with regard to initial cooling effect during brushing, directly after brushing and the long last effect after 5 and after 10 minutes. The evaluation was done according to a score card from 1=almost no cooling effect to 10=strong cooling sensation. Example 1 is according to the invention, examples C1 to C3 serve for comparison.

As for `CCCCCCCCOC(=O)Cc1ccc(O)c(OC)c1` [octyl ester of homovanillic acid], the “Pain sensation in rat eyes (assessment in words)” value (shortened to “Pain sensation in rat eyes”) in the assay with rat eyes is on record as “active”.
Turning to `CCCOC(=O)Cc1ccc(O)c(OC)c1` [II-17, Propyl-2-(4-hydroxy-3-methoxyphenyl) acetate], in the assay with rat eyes, the “Pain sensation in rat eyes” value was “active”.
`C/C=C(/C=O)c1ccccc1` [Phenylbutenal, 2-Phenyl-but-2-enal]: in assay [1], the “Cooling sensation during and directly after brushing (in words)” value is “improves the cooling sensation during and directly after brushing”; the “Long lasting cooling sensation after 5 and after 10 minutes (in words)” value is reported as “does not have any long lasting effect”.
As for `CCCCCCCCCCCCOC(=O)Cc1ccc(O)c(OC)c1` [dodecyl ester of homovanillic acid], the “Pain sensation in rat eyes” value in the assay on rat eyes is recorded as “active”.
With `COC(=O)Cc1ccc(O)c(OC)c1` [methyl ester of homovanillic acid], the “Pain sensation in rat eyes” value with rat eyes is on record as “active”.
Consider `CCCCCCCCCOC(=O)Cc1ccc(O)c(OC)c1` [nonyl ester of homovanillic acid], for which the “Pain sensation in rat eyes” value in the assay with rat eyes is “active”.
